Measurements published in US7022687B1, “Combination of loteprednol and antihistamines” (Asta Medica AG, priority 1999, dated 2006).

What was measured:
TNFα release = test: LPS-induced TNFα release in diluted human blood (ELISA); format: cell-based
Method: In vitro, investigations on the influencing of the release of the proinflammatory cytokine TNFα in human blood of various donors diluted 1:5 were carried out. The stimulation was effected using lipopolysaccharide (LPS) from Salmonella abortus equi (10 μg/ml) over the course of 24 h at 37° C. and 5% CO2 in an incubator. The TNFα release was determined using an ELISA, based on antibodies from Pharmingen.

[1] = system: young domestic pigs actively sensitized with an antigen (extract from Ascaris suum); test: Allergen-induced nasal secretion (rhinorrhea) in Ascaris-sensitized young domestic pigs; format: in vivo; details: for Inhibition of nasal secretion: intranasal Ascaris allergen challenge, pigs
Method: In vivo investigations were carried out on young domestic pigs actively sensitized with an antigen (extract from Ascaris suum). Three weeks later, they were exposed to allergen challenge, which was carried out by intranasal instillation of the Ascaris extract. This local intranasal allergen challenge leads to a very great increase in the nasal secretion (rhinorrhea). The amount of secretion was determined gravimetrically.

[2] = cited from earlier work

## CN1CCCC(n2nc(Cc3ccc(Cl)cc3)c3ccccc3c2=O)CC1 (stereo not drawn) [Azelastine]
TNFα release; administered alone
  LPS-induced TNFα release (in words): remains virtually unchanged
TNFα release; azelastine 10 μmol/l, human blood diluted 1:5, LPS 10 μg/ml, 24 h
  inhibition at 10 µM: 2%
[1]; azelastine 10 μg/nostril
  Inhibition of nasal secretion: 15%
[1]; used alone at 10 or 20 μg/nostril
  Inhibition of the allergically induced nasal hypersecretion (in words): only marginal inhibition

## CCOC(=O)O[C@]1(C(=O)OCCl)CC[C@H]2[C@@H]3CCC4=CC(=O)C=C[C@]4(C)[C@H]3[C@@H](O)C[C@@]21C [Loteprednol etabonate]
[2]
  Water solubility: virtually water-insoluble

## CCOC(=O)O[C@]1(C(=O)OCCl)CC[C@H]2[C@@H]3CCC4=CC(=O)C=C[C@]4(C)[C@H]3[C@@H](O)C[C@@]21C [Loteprednol]
TNFα release; loteprednol 0.001 μmol/l, human blood diluted 1:5, LPS 10 μg/ml, 24 h
  inhibition at 0.001 µM: 1%
TNFα release; loteprednol 0.01 μmol/l, human blood diluted 1:5, LPS 10 μg/ml, 24 h
  inhibition at 0.01 µM: 2%
TNFα release; loteprednol 0.03 μmol/l, human blood diluted 1:5, LPS 10 μg/ml, 24 h
  inhibition at 0.03 µM: 8%
[1]; loteprednol 20 μg/nostril
  Inhibition of nasal secretion: 8%
